In the experiment the test system is OleT. Put plainly: Decarboxylation of FAs C22 to C4 employing the FDH-CamAB-OleT redox-cascade. It counts as biochemical. The procedure: Enzymatic reactions (1 mL scale) were quenched by addition of 100 μL 5 N Extraction of substrate and products was performed with 500 μL EtOAc containing 0.1% 1-decanol as internal standard. The organic phase was dried over anhydrous Na2SO4. Derivatization of carboxylic acids (fatty acids and hydroxy acids) to the corresponding methyl esters was achieved by mixing the organic phase with MeOH (2.5:1.5 v/v) followed by supplementation of 5 to 15 μL of 2 M TMSCHN2 (trimethylsilyldiazomethane in diethyl ether). The mixture was incubated for 30 min, 25° C. and 750 rpm before injection into GC-FID or GC-MS, Extraction and derivatization of products and substrates from conversion of short chain FAs ([…]) was performed using the same protocol but all steps were performed on ice to prevent undesired loss of volatile products.
Products from FA substrates with chain lengths ranging from C22 to C10 were separated on a HP5 column (Programm) and detected by GC-FID or GC-MS. Extracted products from conversion of nonanoic acid (I-octene as product) were separated on a DB1702 column (Programm) and detected by GC-FID. Authentic standards of substrates and terminal olefins were treated as described above and were used as references for identification and preparation of calibration curves. Detection of volatile short chain terminal olefins (1-butene/1-propene [ongoing] to 1-heptene) was accomplished by manual injection from vial headspaces into GC-MS, in order to prevent loss of products, the vials containing the reaction mixtures were sealed with a PTFE septum. After conversion the closed vial was heated for 10 min at 80° C., together with a 10 ml syringe (TYPE). From the headspace 2 to 9 μl volumes were injected splitless into a GC-MS chromatograph and analytes were separated on a HP5 column (Programm). Calibration curves for 1-pentene, 1-hexene and 1-heptene were prepared in the same way at 4° C. and using 5% DMF as cosolvent.
The substrate scope of OleT was further investigated by varying the FA chain length from C3 to C22. […] For the first time, short EAs could be decarboxylated to the corresponding olefins, covering the whole spectrum from C11 down to C4. […] Due to the high volatility of short chain olefins, product work up was done at 4° C. […] (2.53 mM product from 5 mM lauric acid). Head-space analysis by GC-MS from reactions with short chain FAs (C8-C5) confirmed the formation of the respective α-olefins, allowing the first biotechnological access to 1-heptene, 1-hexene and 1-pentene and 1-butene with OleT.
Conversion of heptanoic acid was carried out as described in Example 4 using the OleTCamAB-FDH reaction cascade.
Calibration curves for 1-hexene were prepared accordingly ranging from 0.05 to 2 mM. Due to a strong overlap of […] with the peak areas of CO2 and EtOH (FIG. 1, peaks a, b and c) the ion extraction mode of the GC-MS to generate reliable calibration curves was used. Neither CO2 nor EtOH interfered with the product peak area. This can be seen comparing FIGS. 1 and 5 which allow reliable and linear quantification of 1-hexene (FIG. 6) using manual headspace GC-MS injection.
Manual headspace injection into GC-MS was successfully performed for all substrates with chain lengths of C11 to C6. Conversion of 10 mM heptanoic acid allowed reliable formation of up to 1.3 mM 1-hexene without further optimization of the reaction conditions.

For the setting “4 °C, 72 h, 10 mM substrate”, `CCCCCC(=O)O` [C6, caproic acid/hexanoic acid] displayed a Conversion of 7.7% and a α-Olefin of 772 µM. For the setting “25 °C, 24 h, 10 mM substrate”, this compound showed a Conversion of 12% and a α-Olefin of 1170 µM.

With `CCCCCCC(=O)O` [C7, heptanoic acid], where the note is “10 mM heptanoic acid, manual headspace GC-MS”, the “formation of 1-hexene” value is listed as “up to 1.3 mM”. Also, under “4 °C, 72 h, 10 mM substrate”, the Conversion is on record as 9.5% and the α-Olefin turned out to be 946 µM. Under “25 °C, 24 h, 10 mM substrate”, this compound showed a Conversion of 13% and a α-Olefin of 1298 µM.

Turning to `CCCCCCCC(=O)O` [C8, caprylic acid/octanoic acid], where the note is “4 °C, 72 h, 10 mM substrate”, the Conversion is 1.4% and the α-Olefin was determined as 141 µM. Further, under “25 °C, 24 h, 10 mM substrate”, the Conversion was 3.6% and the α-Olefin was 364 µM.

For the setting “4 °C, 72 h, 10 mM substrate”, `CCCCCCCCC(=O)O` [C9, nonanoic acid] came in with a Conversion of 13% and a α-Olefin of 1347 µM. Where the note is “25 °C, 24 h, 10 mM substrate”, the Conversion is on record as 18%, the “Selectivity α-OH” value is listed as 17 % GC-area, the “Selectivity α-Olefin” value stood at 53 % GC-area and the “Selectivity β-OH” value was 30 % GC-area. For the setting “25 °C, 24 h, 10 mM substrate”, this compound gave a α-Olefin of 1829 µM.

The record behind these values is patent US9885060B2, “Alkene production” (Evonik Degussa GmbH, priority 2015, dated 2018).
